Source: patent US11041000B2, “Peptide inhibitors of interleukin-23 receptor and their use to treat inflammatory diseases” (priority 2019, dated 2021)
Numbered stars: 1 amine (or outer) side, 2 acyl side, 3 side chain; on linkers, the order of the positions; unused ones are H or OH. Bridge positions count the residues as written; N and C are the ends. Square brackets hold non-standard residues; d marks the D form. Peptide text beside a SMILES is read from it. Trp(7-Me) = Cc1cccc2c(C[C@H](N)C(=O)O)c[nH]c12; Abu(4-yl) = O=C([C@H](CC[*:3])N[*:1])[*:2]; 2Nal = N[C@@H](Cc1ccc2ccccc2c1)C(=O)O; AEF = NCCOc1ccc(C[C@H](N)C(=O)O)cc1; Cit = NC(=O)NCCC[C@H](N)C(=O)O; Pen = CC(C)(S)[C@H](N)C(=O)O; αMeK = C[C@](N)(CCCCN)C(=O)O; Aib = CC(C)(N)C(=O)O; βAla = NCCC(=O)O

How the values were obtained:
Type in all cases: in vitro ADME
[1] = Stability in simulated intestinal fluid (SIF); details: simulated intestinal fluid with pancreatin, pH 6.8, 37° C., matrix is 100 fold dilution of standard SIF concentration; for SIF t½: 20 μM; for half-life at 20 μM: read-out: SIF t½ (converted)
Stability in rat plasma = details: both sexes, SD rat plasma, EDTA, 37° C., read-out: t½: Rat Plasma EDTA (converted)
[2] = Stability in human fecal homogenate; details: 20% fecal homogenate (supernatant), pH 6.8, 20% human fecal homogenate, anaerobic, 37° C., read-out: t½: Human Feces anaerobic (converted)
Description: (§1) Centrifuged the homogenate at 2800×g for 15 min. The supernatant is taken out and used for incubations. […] The final test compound concentration was 20 μM.

[3] = Stability in cynomolgus monkey fecal homogenate; details: 20% fecal homogenate (supernatant), pH 6.8, 20% cynomolgus monkey fecal homogenate, anaerobic, 37° C., read-out: t½: Monkey Feces anaerobic (converted)
Description: as §1

| Structure (SMILES) | half-life at 20 μM [1] [h] | half-life at 20 μM [2] [h] | further results |
| --- | --- | --- | --- |
| CC(=O)NCCCC[C@@H]1NC(=O)[C@H](Cc2c[nH]c3c(C)cccc23)NC(=O)[C@H]([C@@H](C)O)NC(=O)[C@H](CC(N)=O)NC(=O)[C@@H](NC(C)=O)C(C)(C)SSC(C)(C)[C@@H](C(=O)N[C@@H](Cc2ccc(OCCN)cc2)C(=O)N[C@@H](Cc2ccc3ccccc3c2)C(=O)N[C@@](C)(CCCCN)C(=O)N[C@@H](CCCCNC(C)=O)C(=O)N[C@@H](CC(N)=O)C(=O)NCCC(N)=O)NC1=O [compound 242] | – | – | SIF t½ [1]: 24 h |
| CC(=O)NCCCC[C@H](NC(=O)[C@](C)(CCCCN)NC(=O)[C@H](Cc1ccc2ccccc2c1)NC(=O)[C@H](Cc1ccc(OCCN)cc1)NC(=O)[C@H]1NC(=O)[C@H](CCCNC(N)=O)NC(=O)[C@H](Cc2c[nH]c3c(C)cccc23)NC(=O)[C@H]([C@@H](C)O)NC(=O)[C@H](CC(N)=O)NC(=O)[C@@H](NC(C)=O)C(C)(C)SSC1(C)C)C(=O)N[C@@H](CC(N)=O)C(=O)N[C@@H](C(N)=O)[C@H](C)O [compound 263] (Ac-[Pen]NT[Trp(7-Me)][Cit][Pen][AEF][2Nal][αMeK]K(Ac)N[dT]-NH2; disulfide 1-6) | – | – | SIF t½ [1]: 24 h |
| CC(=O)NCCCC[C@@H]1NC(=O)[C@H](Cc2c[nH]c3c(C)cccc23)NC(=O)[C@H]([C@@H](C)O)NC(=O)[C@H](CC(N)=O)NC(=O)[C@@H](NC(C)=O)C(C)(C)SSC(C)(C)[C@@H](C(=O)N[C@@H](Cc2ccc(OCCN)cc2)C(=O)N[C@@H](Cc2ccc3ccccc3c2)C(=O)N[C@@](C)(CCCCN)C(=O)N[C@@H](CCCCNC(C)=O)C(=O)N[C@@H](CC(N)=O)C(=O)N[C@H](C(N)=O)C(C)C)NC1=O [compound 250] | 11 | > 19.5 | – |
| CC(=O)NCCCC[C@@H]1NC(=O)[C@H](Cc2c[nH]c3c(C)cccc23)NC(=O)[C@H]([C@@H](C)O)NC(=O)[C@H](CC(N)=O)NC(=O)[C@@H](NC(C)=O)C(C)(C)SSC(C)(C)[C@@H](C(=O)N[C@@H](Cc2ccc(OCCN)cc2)C(=O)N[C@@H](Cc2ccc3ccccc3c2)C(=O)N[C@@](C)(CCCCN)C(=O)N[C@@H](CCCCNC(C)=O)C(=O)N[C@@H](CC(N)=O)C(=O)N[C@@H](Cc2c[nH]cn2)C(N)=O)NC1=O [SEQ ID No. 248, Ac-[Pen]-NT-[W(7-Me)]-[Lys(Ac)]-[Pen]-Phe[4-(2-aminoethoxy)]-[2-Nal]-[a-MeLys]-[Lys(Ac)]-N-H-NH2] | 32 | > 22.3 | – |
| CC(=O)NCCCC[C@@H]1NC(=O)[C@H](Cc2c[nH]c3c(C)cccc23)NC(=O)[C@H]([C@@H](C)O)NC(=O)[C@H](CC(N)=O)NC(=O)[C@@H](NC(C)=O)C(C)(C)SSC(C)(C)[C@@H](C(=O)N[C@@H](Cc2ccc(OCCN)cc2)C(=O)N[C@@H](Cc2ccc3ccccc3c2)C(=O)N[C@@](C)(CCCCN)C(=O)N[C@@H](CCCCNC(C)=O)C(=O)N[C@@H](CC(N)=O)C(=O)N[C@@H](C(N)=O)C(C)C)NC1=O [compound 251] | 20 | – | – |
| CC(=O)NCCCC[C@@H]1NC(=O)[C@@H](NC(C)=O)C(C)(C)SSC(C)(C)[C@@H](C(=O)N[C@@H](Cc2ccc(OCCN)cc2)C(=O)N[C@@H](Cc2ccc3ccccc3c2)C(=O)N[C@@](C)(CCCCN)C(=O)N[C@@H](CCCCNC(C)=O)C(=O)N[C@@H](CC(N)=O)C(=O)NCCC(N)=O)NC(=O)[C@H](CCC(N)=O)NC(=O)[C@H](Cc2c[nH]c3c(C)cccc23)NC(=O)[C@H]([C@@H](C)O)NC1=O [compound 239] | – | – | SIF t½ [1]: 24 h |
| CC(=O)NCCCC[C@@H]1NC(=O)[C@H](Cc2c[nH]c3c(C)cccc23)NC(=O)[C@H]([C@@H](C)O)NC(=O)[C@H](CC(N)=O)NC(=O)[C@@H](NC(C)=O)C(C)(C)SSC(C)(C)[C@@H](C(=O)N[C@@H](Cc2ccc(OCCN)cc2)C(=O)N[C@@H](Cc2ccc3ccccc3c2)C(=O)N[C@@](C)(CCCCN)C(=O)N[C@@H](CCCCNC(C)=O)C(=O)N[C@@H](CC(N)=O)C(=O)N[C@@H](CC(C)C)C(N)=O)NC1=O [compound 244] | – | 15 | – |
| CC(=O)NCCCC[C@H](NC(=O)[C@](C)(CCCCN)NC(=O)[C@H](Cc1ccc2ccccc2c1)NC(=O)[C@H](Cc1ccc(OCCN)cc1)NC(=O)[C@H]1NC(=O)[C@H](CCCCNC(=O)CC(F)(F)F)NC(=O)[C@H](Cc2c[nH]c3c(C)cccc23)NC(=O)[C@H]([C@@H](C)O)NC(=O)[C@H](CC(N)=O)NC(=O)[C@@H](NC(C)=O)C(C)(C)SSC1(C)C)C(=O)N[C@@H](CC(N)=O)C(=O)N[C@H](CC(C)C)C(N)=O [compound 319] | – | > 24 | half-life at 20 μM [3]: > 24 h; half-life at 20 μM (Stability in rat plasma): > 24 h |
| CC(=O)NCCCC[C@H](NC(=O)[C@](C)(CC(C)C)NC(=O)[C@H](Cc1ccc2ccccc2c1)NC(=O)[C@H](Cc1ccc(OCCN)cc1)NC(=O)[C@H]1NC(=O)[C@H](CCC(N)=O)NC(=O)[C@H](Cc2c[nH]c3c(C)cccc23)NC(=O)[C@H]([C@@H](C)O)NC(=O)[C@H](CC(N)=O)NC(=O)[C@@H](NC(C)=O)C(C)(C)SSC1(C)C)C(=O)N[C@H](C)C(=O)NCCC(N)=O [compound 209] | 15 | – | – |
| CC(=O)NCCCC[C@H](NC(=O)[C@](C)(CC(C)C)NC(=O)[C@H](Cc1ccc2ccccc2c1)NC(=O)[C@H](Cc1ccc(OCCN)cc1)NC(=O)[C@H]1NC(=O)[C@H](CCC(N)=O)NC(=O)[C@H](Cc2c[nH]c3c(C)cccc23)NC(=O)[C@H]([C@@H](C)O)NC(=O)[C@H](CC(N)=O)NC(=O)[C@@H](NC(C)=O)C(C)(C)SSC1(C)C)C(=O)N[C@H](CO)C(=O)NCCC(N)=O [compound 222] | 19 | – | – |
| CC(=O)NCCCC[C@H](NC(=O)[C@](C)(CCCCN)NC(=O)[C@H](Cc1ccc2ccccc2c1)NC(=O)[C@H](Cc1ccc(OCCN)cc1)NC(=O)[C@H]1NC(=O)[C@H](CCC(N)=O)NC(=O)[C@H](Cc2c[nH]c3c(C)cccc23)NC(=O)[C@H]([C@@H](C)O)NC(=O)[C@H](CCCNC(N)=O)NC(=O)[C@@H](NC(C)=O)C(C)(C)SSC1(C)C)C(=O)N[C@@H](CC(N)=O)C(=O)NCCC(N)=O [compound 238] (Ac-[Pen][Cit]T[Trp(7-Me)]Q[Pen][AEF][2Nal][αMeK]K(Ac)N[βAla]-NH2; disulfide 1-6) | – | – | SIF t½ [1]: 24 h |
| CCCCCCCC(=O)NCCCC[C@@H]1NC(=O)[C@H](Cc2c[nH]c3c(C)cccc23)NC(=O)[C@H]([C@@H](C)O)NC(=O)[C@H](CC(N)=O)NC(=O)[C@@H](NC(C)=O)C(C)(C)SSC(C)(C)[C@@H](C(=O)N[C@@H](Cc2ccc(OCCN)cc2)C(=O)N[C@@H](Cc2ccc3ccccc3c2)C(=O)N[C@@](C)(CCCCN)C(=O)N[C@@H](CCCCNC(C)=O)C(=O)N[C@@H](CC(N)=O)C(=O)N[C@H](CC(C)C)C(N)=O)NC1=O [compound 317] | – | > 24 | half-life at 20 μM [3]: > 24 h; half-life at 20 μM (Stability in rat plasma): > 24 h |

Second part, led by results:

| half-life at 20 μM [1] [h] | half-life at 20 μM [2] [h] | Structure (SMILES) | further results |
| --- | --- | --- | --- |
| 4 | – | CC(=O)NCCCC[C@@H]1NC(=O)[C@H](Cc2c[nH]c3c(C)cccc23)NC(=O)[C@H]([C@@H](C)O)NC(=O)[C@H](CCC(N)=O)NC(=O)[C@@H](NC(=O)[C@@H](CCCNC(=N)N)NC(C)=O)CCSC[C@@H](C(=O)N[C@@H](Cc2ccc(OCCN)cc2)C(=O)N[C@@H](Cc2ccc3ccccc3c2)C(=O)N[C@@](C)(CCCCN)C(=O)N[C@@H](CCCCNC(C)=O)C(=O)N[C@@H](CC(N)=O)C(N)=O)NC1=O [compound 326] (Ac-[dR][Abu(4-yl)]QT[Trp(7-Me)]K(Ac)C[AEF][2Nal][αMeK]K(Ac)N-NH2; thioether 2-7) | half-life at 20 μM (Stability in rat plasma): > 24 h |
| 3 | > 17 | CC(=O)NCCCC[C@@H]1NC(=O)[C@H](Cc2c[nH]c3c(C)cccc23)NC(=O)[C@H]([C@@H](C)O)NC(=O)[C@H](CC(N)=O)NC(=O)[C@@H](NC(C)=O)C(C)(C)SSC(C)(C)[C@@H](C(=O)N[C@@H](Cc2ccc(OCCN)cc2)C(=O)N[C@@H](Cc2ccc3ccccc3c2)C(=O)N[C@@](C)(CCCCN)C(=O)N[C@@H](CCCCNC(C)=O)C(=O)N[C@@H](CC(N)=O)C(=O)N[C@@H](CCCNC(N)=O)C(N)=O)NC1=O [compound 249] | – |
| 13 | 12 | CC(=O)NCCCC[C@H](NC(=O)[C@](C)(CCCCN)NC(=O)[C@H](Cc1ccc2ccccc2c1)NC(=O)[C@H](Cc1ccc(OCCN)cc1)NC(=O)[C@H]1NC(=O)[C@H](CCCNC(N)=O)NC(=O)[C@H](Cc2c[nH]c3c(C)cccc23)NC(=O)[C@H]([C@@H](C)O)NC(=O)[C@H](CC(N)=O)NC(=O)[C@@H](NC(C)=O)C(C)(C)SSC1(C)C)C(=O)N[C@@H](CC(N)=O)C(=O)NC(C)(C)C(=O)N[C@@H](CCCNC(=N)N)C(N)=O [compound 343] (Ac-[Pen]NT[Trp(7-Me)][Cit][Pen][AEF][2Nal][αMeK]K(Ac)N[Aib]R-NH2; disulfide 1-6) | half-life at 20 μM (Stability in rat plasma): > 24 h |
| 10 | – | CC(=O)NCCCC[C@@H]1NC(=O)[C@H](Cc2c[nH]c3c(C)cccc23)NC(=O)[C@H]([C@@H](C)O)NC(=O)[C@H](CC(N)=O)NC(=O)[C@@H](NC(C)=O)C(C)(C)SSC(C)(C)[C@@H](C(=O)N[C@@H](Cc2ccc(OCCN)cc2)C(=O)N[C@@H](Cc2ccc3ccccc3c2)C(=O)N[C@@](C)(CCCCN)C(=O)N[C@@H](CCCCNC(C)=O)C(=O)N[C@@H](CC(N)=O)C(=O)N2CCC[C@H]2C(N)=O)NC1=O [compound 253] | – |
| – | > 24 | CC(=O)NCCCC[C@@H]1NC(=O)[C@H](Cc2c[nH]c3c(C)cccc23)NC(=O)[C@H]([C@@H](C)O)NC(=O)[C@@H](CC(N)=O)NC(=O)[C@@H](NC(C)=O)C(C)(C)SSC(C)(C)[C@@H](C(=O)N[C@@H](Cc2ccc(OCCN)cc2)C(=O)N[C@@H](Cc2ccc3ccccc3c2)C(=O)N[C@@](C)(CCCCN)C(=O)N[C@@H](CCCCNC(C)=O)C(=O)N[C@@H](CC(N)=O)C(=O)N[C@H](CC(C)C)C(N)=O)NC1=O [compound 338] | half-life at 20 μM [3]: > 24 h; half-life at 20 μM (Stability in rat plasma): > 24 h |
